Test results as given in US11629146B2, “Substituted [1,2,4]triazolo[4,3-a]pyrazines as modulators of sodium channel activity” (Praxis Precision Medicines, Inc., priority 2016, dated 2023).
Like-named read-outs stand apart in the source and are kept apart here.

Biological target: human NaV1.6 (hNaV1.6) (Homo sapiens (Human), UniProt Q9UQD0)
Experiment: INaL inhibition at hNaV1.6, PatchXpress electrophysiology
Type: cell-based
Method: Functional characterization of exemplary compounds to modulate INaL expressed by the Nay 1.6 voltage-gated sodium channel was accomplished using the PatchXpress™ high throughput electrophysiology platform (Molecular Devices, Sunnyvale, Calif.). HEK-293 cells expressing recombinant, human NaV1.6 (hNaV1.6) were grown in DMEM/high-glucose Dulbecco's modified, 10% FBS, 2 mM sodium pyruvate, 10 mM HEPES and 400 μg/mL G418. Cells were grown to 50%-80% confluency prior to harvesting. […] The onboard liquid handling facility of the PatchXpress was used for dispensing cells and applying test compounds. Nay late currents were evoked by the application of 300 nM ATX-II. […] INaL amplitude and stability were determined by analyzing the mean current amplitude over the final 20 ms of the test pulse. […] Percent steady-state inhibition of INaL was calculated as: [(INaL_compound)/(INaL_control)]*100, where INaL_compound and INaL_control represent INaL recorded in the presence or absence of compound, respectively.

[1] = HEK293, 1 μM, HEK-293 cells expressing hNaV1.6, late current evoked by 300 nM ATX-II, read-out: INaL v1.6 (1 μM, % Inhibition)
[2] = HEK293, read-out: INaL v1.6 (1 μM, % Inhibition)

Chain of human NaV1.6 (hNaV1.6) (Q9UQD0 whole entry): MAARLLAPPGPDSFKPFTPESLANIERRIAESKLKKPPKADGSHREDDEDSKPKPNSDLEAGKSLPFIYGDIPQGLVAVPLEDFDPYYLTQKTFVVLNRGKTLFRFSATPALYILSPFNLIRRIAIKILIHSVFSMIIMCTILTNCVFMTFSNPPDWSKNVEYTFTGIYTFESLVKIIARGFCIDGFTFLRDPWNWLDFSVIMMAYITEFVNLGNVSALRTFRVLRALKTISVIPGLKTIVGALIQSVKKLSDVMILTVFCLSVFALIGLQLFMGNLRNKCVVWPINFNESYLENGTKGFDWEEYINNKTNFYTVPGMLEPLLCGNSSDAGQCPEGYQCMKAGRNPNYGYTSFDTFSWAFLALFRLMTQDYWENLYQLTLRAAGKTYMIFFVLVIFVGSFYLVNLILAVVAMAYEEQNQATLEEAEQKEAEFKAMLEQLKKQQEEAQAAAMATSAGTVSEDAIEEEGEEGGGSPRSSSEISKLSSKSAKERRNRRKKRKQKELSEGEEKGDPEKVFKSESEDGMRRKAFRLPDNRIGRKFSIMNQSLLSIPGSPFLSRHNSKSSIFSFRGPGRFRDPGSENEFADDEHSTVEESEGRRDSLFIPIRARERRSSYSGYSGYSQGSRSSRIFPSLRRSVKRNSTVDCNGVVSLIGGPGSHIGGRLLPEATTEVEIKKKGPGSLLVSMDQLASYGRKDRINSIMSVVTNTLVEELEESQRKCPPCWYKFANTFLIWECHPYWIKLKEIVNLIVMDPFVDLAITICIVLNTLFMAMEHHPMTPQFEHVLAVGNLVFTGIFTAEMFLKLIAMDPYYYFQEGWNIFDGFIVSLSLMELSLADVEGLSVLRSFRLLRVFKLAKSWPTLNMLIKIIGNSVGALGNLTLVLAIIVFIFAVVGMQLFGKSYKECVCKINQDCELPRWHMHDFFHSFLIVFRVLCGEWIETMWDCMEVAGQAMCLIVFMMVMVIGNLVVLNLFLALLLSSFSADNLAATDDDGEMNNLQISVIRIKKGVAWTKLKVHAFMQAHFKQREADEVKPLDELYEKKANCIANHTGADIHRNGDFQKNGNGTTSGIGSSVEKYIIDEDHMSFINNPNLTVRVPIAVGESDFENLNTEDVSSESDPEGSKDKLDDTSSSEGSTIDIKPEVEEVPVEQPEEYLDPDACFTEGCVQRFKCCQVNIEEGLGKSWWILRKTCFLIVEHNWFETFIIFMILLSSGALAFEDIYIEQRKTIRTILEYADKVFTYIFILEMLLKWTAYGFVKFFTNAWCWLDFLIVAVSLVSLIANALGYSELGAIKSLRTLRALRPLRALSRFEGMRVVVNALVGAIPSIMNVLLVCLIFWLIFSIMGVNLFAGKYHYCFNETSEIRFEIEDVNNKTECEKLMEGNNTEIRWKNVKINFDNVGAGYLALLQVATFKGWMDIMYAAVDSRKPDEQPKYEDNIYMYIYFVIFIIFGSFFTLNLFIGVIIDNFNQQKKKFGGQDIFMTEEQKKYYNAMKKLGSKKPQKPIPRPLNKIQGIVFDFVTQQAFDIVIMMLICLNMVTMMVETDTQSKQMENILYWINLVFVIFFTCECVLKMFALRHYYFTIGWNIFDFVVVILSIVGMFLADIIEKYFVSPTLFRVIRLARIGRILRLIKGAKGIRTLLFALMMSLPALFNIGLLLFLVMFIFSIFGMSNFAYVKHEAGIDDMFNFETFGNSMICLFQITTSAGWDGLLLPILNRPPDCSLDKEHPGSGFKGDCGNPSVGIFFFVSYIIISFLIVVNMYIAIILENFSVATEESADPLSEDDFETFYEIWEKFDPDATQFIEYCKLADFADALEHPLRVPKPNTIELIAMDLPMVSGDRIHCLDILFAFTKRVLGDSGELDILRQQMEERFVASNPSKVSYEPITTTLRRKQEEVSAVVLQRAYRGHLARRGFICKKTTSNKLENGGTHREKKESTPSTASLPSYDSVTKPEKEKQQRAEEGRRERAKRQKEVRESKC

Row | inhibition at 1 µM [1] [%] | Compound | also measured
1 | > 70 | CC(Oc1ncc(-c2ccc3nnc(C(F)(F)F)n3n2)cc1F)C(F)(F)F (centres unmarked) [Compound 128] | 
2 | 30 to 70 | FC(F)(F)COc1ccc(-c2ccc3nnc(C(F)(F)F)n3n2)nc1 [Compound 58] | 
3 | 30 to 70 | FC(F)(F)Oc1ccc(-c2cn3c(C4CC4)nnc3cn2)cc1 [Compound 80] | 
4 | 30 to 70 | FC(F)c1nnc2cnc(-c3ccc(OCC(F)(F)F)nc3)cn12 [Compound 50] | 
5 | 30 to 70 | COCc1cc(OC(F)(F)F)ccc1-c1ccc2nnc(C(F)F)n2n1 [Compound 137] | 
6 | 30 to 70 | FC1(F)CC(c2nnc3cnc(-c4ccc(OC(F)(F)F)cc4)cn23)C1 [Compound 82] | 
7 | < 30 | N#CC1(c2ccc(-c3cn4c(C(F)(F)F)nnc4cn3)cc2)CC1 [Compound 67] | 
8 | < 30 | FC(F)(F)Oc1ccc(-c2cn3c(C[C@H]4CCCOC4)nnc3cn2)cc1 (single isomer, unassigned) [Compound 154] | 
9 | > 70 | CC(Oc1ncc(-c2cn3c(C(F)(F)F)nnc3cn2)cc1F)C(F)(F)F (centres unmarked) [Compound 133] | 
10 | 30 to 70 | FC(F)c1nnc2ccc(-c3ccc([C@H]4CC4(F)F)cc3)nn12 [Compound 164, 6-[4-[(1R)-2,2-difluorocyclopropyl]phenyl]-3-(difluoromethyl)-[1,2,4]triazolo[4,3-b]pyridazine] | 
11 | > 70 | COc1cc(OC(F)(F)F)ccc1-c1ccc2nnc(C(F)(F)F)n2n1 [Compound 5] | 
12 | 30 to 70 | Cc1nc(-c2ccc(OC(F)(F)F)cc2)cn2c(C(F)(F)F)nnc12 [Compound 168, 8-methyl-6-[4-(trifluoromethoxy)phenyl]-3-(trifluoromethyl)-[1.2.4]triazolo[4,3-a]pyrazine] | 
13 | > 70 | FC(F)c1nnc2ccc(-c3ccc([C@@H]4CC4(F)F)cc3)nn12 [Compound 165, 6-[4-[(1S)-2,2-difluorocyclopropyl]phenyl]-3-(difluoromethyl)-[1,2,4]triazolo[4,3-b]pyridazine] | 
14 | 30 to 70 | FC(F)c1nnc2cnc(-c3ccc(COC(F)(F)F)cc3)cn12 [Compound 197] | 
15 | > 70 | Fc1cc(-c2ccc3nnc(C(F)(F)F)n3n2)cnc1OC1CC(F)(F)C1 [Compound 93] | 
16 | > 70 | COC(F)(F)c1nnc2ccc(-c3ccc(C(F)(F)F)cc3C)nn12 [Compound 111] | 
17 | > 70 | Fc1ccc(-c2nnc3cnc(-c4cnc(OCC(F)(F)F)c(F)c4)cn23)cc1 [Compound 175] | 
18 | > 70 | FC(F)(F)OCc1ccc(-c2cn3c(C(F)(F)F)nnc3cn2)cc1 [Compound 149] | 

Row | inhibition at 1 µM [1] [%] | Compound | also measured
19 | < 30 | CC(=O)Nc1cc(-c2ccc(OC(F)(F)F)cc2)nn2c(C(F)(F)F)nnc12 [Compound 177] | 
20 | 30 to 70 | Fc1ccc(Oc2nnc3cnc(-c4cnc(OCC(F)(F)F)c(F)c4)cn23)cc1 [Compound 188] | 
21 | > 70 | Fc1cc(-c2cn3c(C(F)(F)F)nnc3cn2)ccc1OC(F)(F)F [Compound 79] | 
22 | > 70 | COc1cc(OC(F)(F)F)ccc1-c1ccc2nnc(C(F)(F)OCC3CC3)n2n1 [Compound 34] | 
23 | < 30 | Fc1cc(-c2ccc3nnc(C(F)F)n3n2)cnc1OCC(F)(F)F [Compound 85] | 
24 | < 30 | COCc1ccc(-c2ccc3nnc(C(F)F)n3n2)cc1 [Compound 171] | 
25 | < 30 | FC(F)(F)Oc1ccc(-c2cn3c([C@H]4CCOC4)nnc3cn2)cc1 [Compound 160, 3-[(3R)-tetrahydrofuran-3-yl]-6-[4-(trifluoromethoxy)phenyl]-[1,2,4]triazolo[4,3-a]pyrazine] | 
26 | < 30 | FC(F)Oc1ccc(-c2cn3c(C(F)F)nnc3cn2)cc1 [Compound 138] | 
27 | 30 to 70 | FC(F)c1nnc2cnc(-c3ccc(OC(F)(F)F)cc3)cn12 [Compound 47] | 
28 | 30 to 70 | FC1(F)CC(Oc2ccc(-c3cn4c(C(F)(F)F)nnc4cn3)cn2)C1 [Compound 86] | 
29 | < 30 | OCc1cc(-c2ccc(OC(F)(F)F)cc2)nn2c(C(F)(F)F)nnc12 [Compound 186] | 
30 | < 30 | COCc1cc2nnc(C(F)(F)F)n2nc1-c1ccc(OC(F)(F)F)cc1 [Compound 143] | 
31 | 30 to 70 | O=C(Cc1nnc2cnc(-c3ccc(OC(F)(F)F)cc3)cn12)N1CCCC1 [Compound 114] | 
32 | > 70 | Cc1cc(-c2ccc3nnc(C(F)(F)F)n3n2)ccc1C(F)(F)F [Compound 98] | 
33 | < 30 | COCc1nc(-c2ccc(OC(F)(F)F)cc2)cn2c(C(F)(F)F)nnc12 [Compound 192] | 
34 | 30 to 70 | COCc1cc(-c2ccc3nnc(C(F)F)n3n2)ccc1OC(F)(F)F [Compound 146] | 
35 | > 70 | C[C@H](Oc1ccc(-c2ccc3nnc(C(F)(F)F)n3n2)cn1)C(F)(F)F [Compound 200, 3-(trifluoromethyl)-6-[6-[(1S)-2,2,2-trifluoro-1-methyl-ethoxy]-3-pyridyl]-[1,2,4]triazolo[4,3-b]pyridazine] | 
36 | > 70 | FC(F)(F)Oc1ccc(-c2nn3c(C(F)(F)F)nnc3cc2Cl)cc1 [Compound 162, 7-chloro-6-[4-(trifluoromethoxy)phenyl]-3-(trifluoromethyl)-[1,2,4]triazolo[4,3-b]pyridazine] | 

The next lines start with the molecule.

Row | Compound | inhibition at 1 µM [1] [%] | also measured
37 | FC(F)Oc1ccc(-c2ccc3nnc(C(F)(F)F)n3n2)cc1 [Compound 116] | > 70 | 
38 | Cc1cc(OC2CC(F)(F)C2)ccc1-c1ccc2nnc(C(F)(F)F)n2n1 [Compound 94] | 30 to 70 | 
39 | FC(F)(F)Oc1ccc(-c2cnc3nncn3c2)cc1 [Compound 55] | < 30 | 
40 | Nc1cc(-c2ccc(OC(F)(F)F)cc2)nn2c(C(F)(F)F)nnc12 [Compound 176, 6-[4-(trifluoromethoxy)phenyl]-3-(trifluoromethyl)-[1,2,4]triazolo[4,3-b]pyridazin-8-amine] | < 30 | 
41 | Cc1ccc(OC(F)(F)F)cc1-c1ccc2nnc(C(F)(F)F)n2n1 [Compound 36] | < 30 | 
42 | CC(C)(O)c1ccc(-c2ccc3nnc(C(F)(F)F)n3n2)cc1 [Compound 102] | < 30 | 
43 | COCc1cc(-c2ccc3nnc(C(F)(F)F)n3n2)ccc1C(F)(F)F [Compound 158] | 30 to 70 | 
44 | FC(F)(F)Oc1ccc(-c2ccc3nnc(C4CC4(F)F)n3n2)cc1 (single isomer, unassigned) [Compound 46] |  | INaL v1.6 (1 μM, % Inhibition) (1 μM, HEK-293 cells expressing hNaV1.6, late current evoked by 300 nM ATX-II): C (inhibition of greater than 70%)
45 | FC(F)c1nnc2cnc(-c3ccc([C@H]4CC4(F)F)cc3)cn12 [Compound 166, 6-[4-[(1R)-2,2-difluorocyclopropyl]phenyl]-3-(difluoromethyl)-[1,2,4]triazolo[4,3-a]pyrazine] | 30 to 70 | 
46 | COc1cc(OC(F)(F)F)ccc1-c1ccc2nnc(C(F)(F)OC)n2n1 [Compound 33] | > 70 | 
47 | FC(F)(F)Oc1ccc(-c2cn3c([C@@H]4CCOC4)nnc3cn2)cc1 [Compound 161, 3-[(3S)-tetrahydrofuran-3-yl]-6-[4-(trifluoromethoxy)phenyl]-[1,2,4]triazolo[4,3-a]pyrazine] | < 30 | 
48 | OCc1ccc(-c2ccc3nnc(C(F)F)n3n2)cc1 [Compound 169, [4-[3-(difluoromethyl)-[1,2,4]triazolo[4,3-b]pyridazin-6-yl]phenyl]methanol] | < 30 | 
49 | FC(F)(F)Oc1ccc(-c2cn3c(C[C@H]4CCCCO4)nnc3cn2)cc1 [Compound 129, 3-[[(2R)-tetrahydropyran-2-yl]methyl]-6-[4-(trifluoromethoxy)phenyl]-[1,2,4]triazolo[4,3-a]pyrazine] | < 30 | 
50 | CC(=O)Nc1cc2nnc(C(F)(F)F)n2nc1-c1ccc(OC(F)(F)F)cc1 [Compound 191] | < 30 | 
51 | Fc1cc(-c2ccc3nnc(C(F)(F)F)n3n2)cnc1C(F)(F)F [Compound 99] | < 30 | 
52 | COCc1cc(-c2ccc3nnc(C(F)F)n3n2)ccc1C(F)(F)F [Compound 159] | 30 to 70 | 
53 | FC(F)(F)c1nnc2ccc(-c3ccc(C4CC4(F)F)cc3)nn12 (centres unmarked) [Compound 120, 6-[4-(2,2-difluorocyclopropyl)phenyl]-3-(trifluoromethyl)-[1,2,4]triazolo[4,3-b]pyridazine] |  | inhibition at 1 µM [2]: > 70%
54 | Fc1cc(C(F)(F)F)ccc1-c1cn2c(C(F)(F)F)nnc2cn1 [Compound 76] | 30 to 70 | 
55 | CC(C)c1nnc2cnc(-c3ccc(OC(F)(F)F)cc3)cn12 [Compound 75] | < 30 | 
56 | FC(F)(F)Oc1ccc(-c2ccc3nnc(CC4CCOCC4)n3n2)cc1 [Compound 39] |  | inhibition at 1 µM [2]: < 30%
57 | FC(F)(F)c1nnc2cnc(-c3ccc([C@H]4CC4(F)F)cc3)cn12 [Compound 151, 6-[4-[(1R)-2,2-difluorocyclopropyl]phenyl]-3-(trifluoromethyl)-[1,2,4]triazolo[4,3-a]pyrazine] | 30 to 70 | 
58 | Fc1cc(-c2cn3c(C(F)(F)F)nnc3cn2)ccc1OC1CC(F)(F)C1 [Compound 194] | 30 to 70 | 
59 | FC(F)(F)Oc1ccc(-c2cn3c(C4CCOCC4)nnc3cn2)cc1 [Compound 145] |  | inhibition at 1 µM [2]: < 30%
60 | Fc1cc(-c2ccc3nnc(C4CC4)n3n2)cnc1OCC(F)(F)F [Compound 103] | 30 to 70 | 
61 | FC(F)(F)Oc1ccc(-c2ccc3nnc(CC4CCCOC4)n3n2)cc1 (centres unmarked) [Compound 38] |  | inhibition at 1 µM [2]: 30 to 70%
62 | FC(F)(F)Oc1ccc(-c2ccc3nnc(C(F)(F)F)n3n2)c(C2COC2)c1 [Compound 32] | 30 to 70 | 
